Strand notation (5' to 3'): a small letter for the sugar, then the base; units joined by * are phosphorothioate-linked, units joined directly phosphodiester-linked; [ ] holds rarer units or linkages, { } end groups; capitals alone tell only the bases. k = constrained ethyl (cEt); [5mC] = 5-methylcytosine; d = 2'-deoxy (DNA)
Columns and labels:
human SMAD7 mRNA [1] = assay: Dose-dependent inhibition of human SMAD7 mRNA expression in Hep3B cells (Example 3, Study 1 and 2); assay type: cell-based; details: electroporation; for % inhibition of SMAD7 mRNA expression: approximately 16 hours; for IC50: Study 2 (740-20000 nM)
In short: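 Hep3B cells, 20,000 per well, electroporated with antisense oligonucleotide at 0.31, 1.25, 5.00 or 20.00 μM (first series) or 0.74, 2.22, 6.67 or 20.00 μM (second series). After ~16 h, SMAD7 mRNA measured by RT-qPCR (RTS5062), normalised to RIBOGREEN total RNA. Percent inhibition vs untreated cells; IC50 derived.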

human SMAD7 mRNA [2] = assay: Antisense inhibition of human SMAD7 mRNA expression in Hep3B cells by 3-10-3 cEt gapmers, 10,000 nM, electroporation (Example 2); assay type: cell-based; details: approximately 24 hours
In short: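 Hep3B cells (20,000/well) were electroporated with 10,000 nM 3-10-3 cEt gapmer (16-mer, phosphorothioate, 5-methylcytosines) and harvested after about 24 h. SMAD7 mRNA quantified by RT-qPCR with primer probe set RTS5062, normalized to total RNA by RiboGreen; percent inhibition relative to untreated cells.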

[3] = 740 nM, Study 2, relative to untreated control cells
[4] = Hep3B cells, electroporation with 10,000 nM antisense oligonucleotide, RTS5062, percent inhibition of SMAD7 mRNA relative to untreated control cells
[5] = Hep3B cells, electroporation with 10,000 nM antisense oligonucleotide, SMAD7 mRNA by RT-PCR (RTS5062), relative to untreated control cells
[6] = Hep3B cells, electroporation with 10,000 nM antisense oligonucleotide, primer probe set RTS5062, relative to untreated control cells
[7] = SMAD7 mRNA, Hep3B cells, 10,000 nM antisense oligonucleotide, electroporation, primer probe set RTS5062, relative to untreated control cells
[8] = Hep3B cells, electroporation, 10,000 nM antisense oligonucleotide, RTS5062, relative to untreated control cells

Row | Substance | % inhibition of SMAD7 mRNA expression (human SMAD7 mRNA [1]; [3]) | % inhibition of SMAD7 mRNA expression (human SMAD7 mRNA [1]; 2220 nM, Study 2) | % inhibition of SMAD7 mRNA expression (human SMAD7 mRNA [1]; 6670.0 nM, Study 2) | % inhibition of SMAD7 mRNA expression (human SMAD7 mRNA [1]; 20000.0 nM, Study 2) | IC50 (human SMAD7 mRNA [1]) | % Inhibition (human SMAD7 mRNA [2]; [4]) | % Inhibition (human SMAD7 mRNA [2]; [5]) | % inhibition of SMAD7 mRNA expression (human SMAD7 mRNA [2]; [6]) | % Inhibition (human SMAD7 mRNA [2]; [7]) | % Inhibition (human SMAD7 mRNA [2]; SMAD7 mRNA, Hep3B cells, electroporation with 10,000 nM antisense oligonucleotide, primer probe set RTS5062, relative to untreated control cells) | % inhibition of SMAD7 mRNA expression (human SMAD7 mRNA [2]; [8])
1 | 799686 (antisense kG*kA*kG*dA*dT*dT*dT*dT*dA*dA*dA*dT*dG*k[5mC]*kT*kG) [compound 799686] | 18% | 35% | 36% | 56% | 2 µM | 62% | – | – | – | – | –
2 | 830142 (antisense kT*kG*kT*dG*d[5mC]*dA*d[5mC]*d[5mC]*dA*dG*dG*dT*dG*kA*kG*k[5mC]) [compound 830142] | 13% | 37% | 32% | 49% | > 20 µM | – | 60% | – | – | – | –
3 | 800066 (antisense kT*kG*kT*dT*dT*dT*dA*dA*dG*dT*dA*dG*d[5mC]*kA*kG*k[5mC]) [compound 800066] | 7% | 42% | 62% | 82% | 9 µM | – | 63% | – | – | – | –
4 | 830122 (kG*kA*kG*dA*dA*dT*d[5mC]*dA*dA*dG*d[5mC]*d[5mC]*d[5mC]*kT*kG*kG; antisense) [compound 830122] | 28% | 54% | 66% | 74% | 3 µM | – | 57% | – | – | – | –
5 | 799143 (antisense kT*kG*kG*dG*dT*dT*dA*dT*dG*dA*d[5mC]*dG*dG*kA*k[5mC]*k[5mC]) [compound 799143] | 87% | 93% | 95% | 96% | 2 µM | – | – | 66% | 61% | – | –
6 | 790666 (kT*kA*kA*dT*dT*dT*dA*dT*dG*dA*d[5mC]*dA*dA*k[5mC]*kG*k[5mC]; antisense) [compound 790666] | 13% | 49% | 54% | 74% | 4 µM | – | – | – | 72% | – | –
7 | 799668 (antisense kG*kA*k[5mC]*dA*dG*dA*dT*dG*d[5mC]*d[5mC]*dA*dG*d[5mC]*kA*kA*kG) [compound 799668] | 15% | 17% | 39% | 72% | 1 µM | 75% | – | – | – | – | –
8 | 830053 (kG*kG*kG*dT*dG*dA*dG*dT*dA*dA*d[5mC]*d[5mC]*dA*kG*k[5mC]*kT; antisense) [compound 830053] | 29% | 56% | 79% | 87% | 2 µM | – | 68% | – | – | – | –
9 | 799921 (antisense k[5mC]*kT*kA*dA*dT*dT*dA*dG*dT*dG*dA*d[5mC]*dT*kG*kT*kG) [compound 799921] | 10% | 35% | 55% | 58% | 11 µM | – | 75% | – | – | – | –
10 | 829995 (kT*kG*kG*dA*dG*dG*d[5mC]*dA*dG*dG*dG*d[5mC]*d[5mC]*kG*k[5mC]*kG; antisense) [compound 829995] | 36% | 74% | 76% | 84% | 8 µM | – | – | – | – | 78% | –
11 | 799753 (antisense k[5mC]*kG*kT*dG*dA*dG*dT*dA*dA*dA*dT*dT*d[5mC]*kT*kT*kA) [compound 799753] | 0% | 33% | 32% | 66% | 4 µM | – | – | – | – | – | 69%
12 | 799596 (kA*k[5mC]*kT*d[5mC]*dT*dG*dA*dA*d[5mC]*dG*dG*dA*dA*kA*kG*kA; antisense) [compound 799596] | 14% | 35% | 66% | 83% | 5 µM | – | – | – | – | – | 49%
13 | 799382 (antisense kA*k[5mC]*kT*dT*dT*dT*dA*dG*d[5mC]*dA*dA*dA*d[5mC]*kA*kG*kA) [compound 799382] | 0% | 36% | 56% | 75% | 3 µM | – | – | 82% | – | – | –
14 | 799412 (antisense kT*kT*k[5mC]*dT*dT*dA*d[5mC]*dA*d[5mC]*dA*dG*d[5mC]*dA*kG*k[5mC]*kG) [compound 799412] | 35% | 51% | 67% | 65% | 4 µM | – | 60% | – | – | – | –
15 | 799402 (antisense kG*kG*kT*d[5mC]*dA*d[5mC]*dT*dG*dT*dT*d[5mC]*dT*d[5mC]*kT*k[5mC]*kT) [compound 799402] | 0% | 3% | 13% | 50% | 10 µM | – | – | 66% | – | – | –
16 | 799787 (k[5mC]*k[5mC]*kA*dA*dA*dG*d[5mC]*dA*dG*dA*dA*dG*dT*kA*kG*kA; antisense) [compound 799787] | 0% | 9% | 35% | 41% | 18 µM | 58% | – | – | – | – | –
17 | 829734 (antisense kT*k[5mC]*k[5mC]*dG*d[5mC]*dA*d[5mC]*dA*d[5mC]*d[5mC]*dA*dT*dG*kA*kA*kG) [compound 829734] | 20% | 40% | 69% | 68% | 4 µM | – | – | – | 71% | – | –
18 | 799712 (antisense kA*kT*kA*dG*dA*dT*dT*dA*dT*d[5mC]*d[5mC]*dA*dA*kG*kT*kA) [compound 799712] | 27% | 45% | 55% | 63% | 3 µM | – | – | – | – | – | 70%
19 | 799067 (antisense kG*kG*kA*dT*dG*dA*dA*dA*dA*dT*dA*dA*dT*kT*kG*kG) [compound 799067] | 5% | 55% | 63% | 78% | 9 µM | – | – | 74% | – | – | –

Source: patent US10517889B2, “Modulators of SMAD7 expression” (Ionis Pharmaceuticals, Inc., priority 2017, dated 2019)
